The text below walks through data of patent US7880007B2, “Bicyclic substituted phenyl piperidine modulators of muscarinic receptors” (Vertex Pharmaceuticals Incorporated, priority 2004, dated 2011).

By Emax is commonly meant the maximal effect, on the per cent scale that the assay sets.

Holding throughout (assay type): cell-based
One assay has as its target T1, M1 muscarinic receptor (Homo sapiens, UniProt P11229).
T1 construct: expressed in transfected cells; host or cells: CHO (M1-CHO)
T1 sequence (P11229 1-460): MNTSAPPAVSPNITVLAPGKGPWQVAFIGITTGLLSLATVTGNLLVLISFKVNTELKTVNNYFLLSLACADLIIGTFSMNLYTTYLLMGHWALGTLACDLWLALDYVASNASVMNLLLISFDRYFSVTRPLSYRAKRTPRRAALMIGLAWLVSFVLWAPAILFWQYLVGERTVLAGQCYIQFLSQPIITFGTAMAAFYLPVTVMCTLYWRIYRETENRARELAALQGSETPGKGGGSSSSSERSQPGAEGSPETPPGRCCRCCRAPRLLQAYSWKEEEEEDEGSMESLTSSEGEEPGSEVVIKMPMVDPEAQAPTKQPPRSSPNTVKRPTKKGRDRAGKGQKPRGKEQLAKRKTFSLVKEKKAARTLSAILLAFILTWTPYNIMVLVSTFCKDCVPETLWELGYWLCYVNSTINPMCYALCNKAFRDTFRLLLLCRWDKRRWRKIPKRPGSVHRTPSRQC
The assay is described as follows: Functional mobilization of intracellular calcium (FLIPR), M1-CHO cells. The conditions noted are these: for M1 Activity: M1-CHO cells, calcium mobilization (FLIPR). The method, boiled down: (§1)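 CHO cells expressing human M1–M4 receptors loaded with Fluo-3 AM or Calcium 3 dye (1 mM probenecid, pH 7.4); 0.5% DMSO final. Agonist mode: compound added directly; antagonist mode: 15 min pre-incubation or co-application, then carbachol at EC80. Fluorescence read 60 s on FLIPR; efficacy relative to carbachol maximum.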

Another assay addresses T2, M3 muscarinic receptor (Homo sapiens, UniProt P20309).
T2 construct: expressed in transfected cells; host or cells: CHO (M3-CHO)
Put plainly: Functional mobilization of intracellular calcium (FLIPR), M3-CHO cells. The following applies: for M3 Activity: M3-CHO cells, calcium mobilization (FLIPR). On the procedure: Functional Mobilization of Intracellular Calcium to Determine Muscarinic Receptor Activity:
CHO cells expressing muscarinic receptors (M1 to M5) are grown as monolayers in tissue culture flasks at 37° C. in a humidified atmosphere containing 5% CO2 and passaged every 3-5 days. The growth media is Dulbecco's modified eagles medium (DMEM, Gibco Cat #12430-054), containing 25 mM Hepes and supplemented with Fetal Bovine Serum (Hyclone, cat #SH30071.03), 0.1 mM of MEM non-essential amino acids (GIBCO, Cat #11140-050), 1 mM MEM Sodium Pyruvate (GIBCO Cat #11360-070) and 100 units/ml of Penicillin G and 100 μg/ml of Streptomycin (GIBCO Cat #15140-122). The recombinant muscarinic receptor cell lines are grown under antibiotic pressure with media containing 25 μg/ml zeocin and 500 μg/ml G418 (M1-CHO), 4 μg/ml puromycin, 50 μg/ml zeocin and 2.5 μg/ml blasticidin (M2 and M4-CHO) or 50 μg/ml zeocin and 4 μg/ml puromycin (M3 and M5-CHO).
Cells are harvested at 80-90% confluence using Versene (GIBCO Cat #15040-066), collected by centrifugation and seeded 18-24 hrs prior to running the calcium assay at a density of 5,000-10,000 cells/well in […], clear-bottomed 384-well plates (BD Biocoat, poly-D-lysine, Cat #356663). The day of the experiment, the cells are washed with a plate washer (Bioteck Instruments, ELX 405) using bath 1 buffer (140-mM NaCl, 4.5-mM KCl, 2-mM CaCl2, 1-mM MgCl2, 10-mM Hepes-Na, 10-mM Glucose, pH 7.4, with NaOH) containing 1 mM Probenecid. Next, the calcium dye Fluo-3 (25 μl/well of Fluo-3 AM at 4 μM, Molecular Probes F-1241, in Bath 1 buffer containing 1 mM Probenecid) is added to the 25 μl of Bath 1 remaining in each well after the plate wash and the dye is loaded at 37° C. in the tissue culture incubator for 60-90 min. The fluorescent dye is removed using the plate washer with Bath 1 containing 1 mM Probenecid, leaving 25 μl/well of this solution after the wash. Alternatively, cells can be loaded with the calcium indicator from Molecular Devices (Calcium 3 Assay Reagents, Cat #R7181) adding 5 μl of a 5× solution dye in Bath 1 containing 1 mM Probenecid (10 ml per dye flask cat #R7182 to generate a solution 20×) to 20 μl of the same buffer. After loading for 60 min, the experiment can be run without having to remove the dye.
Compounds are prepared at a 2× fold concentration in a 96-well plate (round bottom, Costar Corning cat #3656), by reconstituting the pre-spotted compounds in bath 1 containing 1 mM probenecid. The final concentration DMSO is 0.5%, and the amount of DMSO is normalized across the assay plate. To determine an agonist action of the compounds on muscarinic receptors, the reconstituted compounds are added (25 μl compound/well) to the cell assay plate (containing 25 μl/well) using the multi-channel robotic system of the FLIPR 3 Instrument (Molecular Devices, Sunnyvale, Calif.). To determine a functional inhibitory action of the compounds on muscarinic receptors, the reconstituted compounds are added (25 μl compound/well) to the assay plate and pre-incubated for 15 min prior to adding 25 μl of Carbachol at 3× the EC80 for each muscarinic subtype. Alternatively, the compounds can be co-applied simultaneously with the agonist. In both assay modes, the fluorescence is recorded for 60 sec (excitation wavelength is […] and emission wavelength 540 nm) using the FLIPR 3 instrument.
The potency, efficacy and selectivity of the muscarinic compounds were evaluated by screening the compound activity across the whole family (M1 to M5 cells). Compounds were also screened for activity on other proteins such as other GPCRs and ion channels to determine selectivity on M4 receptors.
Examples of activities and efficacies of the muscarinic compounds of formulae (I, Ia, Ib, and II) on modulating M1, M2, M3 and M4 receptors are shown below in Table 3. […]
(In general: Calcium assays in cells follow changes in intracellular calcium, usually with a dye or a luminescent sensor.)

A further assay addresses T3, M4 muscarinic receptor (Homo sapiens, UniProt P08173).
T3 construct: expressed in transfected cells; host or cells: CHO (M4-CHO)
T3 sequence (P08173 1-479): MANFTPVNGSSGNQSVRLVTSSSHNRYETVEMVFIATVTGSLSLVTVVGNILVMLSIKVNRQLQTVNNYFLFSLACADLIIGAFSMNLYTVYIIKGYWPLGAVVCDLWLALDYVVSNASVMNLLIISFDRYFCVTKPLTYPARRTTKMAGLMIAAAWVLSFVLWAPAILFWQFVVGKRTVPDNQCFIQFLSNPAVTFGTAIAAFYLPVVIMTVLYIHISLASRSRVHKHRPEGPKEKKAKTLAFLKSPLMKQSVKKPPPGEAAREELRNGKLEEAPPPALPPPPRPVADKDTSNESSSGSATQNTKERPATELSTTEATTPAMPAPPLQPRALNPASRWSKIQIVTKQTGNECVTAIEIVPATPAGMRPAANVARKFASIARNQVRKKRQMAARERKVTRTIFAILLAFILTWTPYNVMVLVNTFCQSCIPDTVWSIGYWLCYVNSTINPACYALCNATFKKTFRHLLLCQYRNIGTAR
The assay is described as follows: Functional mobilization of intracellular calcium (FLIPR), M4-CHO cells. The following applies: for M4 Activity: M4-CHO cells, calcium mobilization (FLIPR). An outline of the steps:
as §1

The target in the next assay is T4, M2 muscarinic receptor (Homo sapiens, UniProt P08172).
T4 construct: expressed in transfected cells; host or cells: CHO (M2-CHO)
T4 sequence (P08172 1-466): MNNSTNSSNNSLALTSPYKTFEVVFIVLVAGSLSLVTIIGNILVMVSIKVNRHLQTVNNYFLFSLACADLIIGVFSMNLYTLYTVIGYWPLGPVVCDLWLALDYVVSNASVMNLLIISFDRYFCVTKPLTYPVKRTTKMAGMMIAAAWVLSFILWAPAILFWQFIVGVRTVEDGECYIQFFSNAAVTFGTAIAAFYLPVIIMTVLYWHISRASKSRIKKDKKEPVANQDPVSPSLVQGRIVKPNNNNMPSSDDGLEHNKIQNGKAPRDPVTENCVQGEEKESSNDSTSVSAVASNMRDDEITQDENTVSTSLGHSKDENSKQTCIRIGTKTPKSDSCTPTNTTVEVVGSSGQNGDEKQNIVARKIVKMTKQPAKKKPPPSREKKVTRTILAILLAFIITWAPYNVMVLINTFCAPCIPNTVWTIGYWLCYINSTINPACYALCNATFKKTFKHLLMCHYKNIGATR
The assay is described as follows: Functional mobilization of intracellular calcium (FLIPR), M2-CHO cells. The following applies: for M2 Activity: M2-CHO cells, calcium mobilization (FLIPR). An outline of the steps:
as §1

[1] abbreviates: 100% efficacy = maximum response obtained with the Carbachol control.
Setting [2] is: 100% efficacy is the maximum response obtained with the Carbachol control.

Structures are written as SMILES.

T2 sequence (P20309 whole entry): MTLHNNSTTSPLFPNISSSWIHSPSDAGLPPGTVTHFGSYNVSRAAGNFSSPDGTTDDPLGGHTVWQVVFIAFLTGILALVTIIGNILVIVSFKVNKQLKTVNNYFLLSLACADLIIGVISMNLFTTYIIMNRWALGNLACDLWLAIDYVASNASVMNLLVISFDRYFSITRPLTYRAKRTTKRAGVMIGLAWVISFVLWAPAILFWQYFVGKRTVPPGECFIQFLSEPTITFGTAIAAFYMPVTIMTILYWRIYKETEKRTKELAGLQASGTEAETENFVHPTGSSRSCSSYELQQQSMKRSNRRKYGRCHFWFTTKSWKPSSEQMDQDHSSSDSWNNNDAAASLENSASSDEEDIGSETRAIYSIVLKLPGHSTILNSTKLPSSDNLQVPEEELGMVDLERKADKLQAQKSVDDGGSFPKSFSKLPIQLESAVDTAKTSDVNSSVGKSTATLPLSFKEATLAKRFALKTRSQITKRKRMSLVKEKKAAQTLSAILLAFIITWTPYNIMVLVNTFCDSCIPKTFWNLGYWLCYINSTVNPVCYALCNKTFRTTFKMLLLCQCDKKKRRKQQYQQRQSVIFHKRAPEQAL

Regarding `Fc1ccccc1-c1ccccc1C1CCN(C2CC3CC[C@H]2C3)CC1` (stereo in doubt) [Compound 10, 1-((1S,2R,4R)-bicyclo[2.2.1]heptan-2-yl)-4-(2′-fluorobiphenyl-2-yl)piperidine], the maximum response (Emax) on M1 muscarinic receptor (setting [1]) is under 25%; at M3 muscarinic receptor (setting [1]) it was under 25%; at M4 muscarinic receptor (setting [1]), 25 to 100%; at M2 muscarinic receptor (setting [1]) it was 25 to 100%. In addition, the “M1 Activity” value at M1 muscarinic receptor is listed as “+ (activity was measured to be greater than 5.0 μM)”. The “M3 Activity” value at M3 muscarinic receptor was “+ (activity was measured to be greater than 5.0 μM)”. At M4 muscarinic receptor, the “M4 Activity” value was “++ (activity was measured to be from 1.0 μM to 5.0 μM)”. Moreover, the “M2 Activity” value at M2 muscarinic receptor is listed as “+ (activity was measured to be greater than 5.0 μM)”.

For the compound `CC(=O)COc1ccccc1C1CCN(C2CC3CC[C@H]2C3)CC1` (stereo in doubt) [Compound 53, 1-(2-(1-((1S,2R,4R)-bicyclo[2.2.1]heptan-2-yl)piperidin-4-yl)phenoxy)propan-2-one], the Emax on M1 muscarinic receptor (setting [1]) is 25 to 100%; at M3 muscarinic receptor (setting [1]), under 25%; at M4 muscarinic receptor (setting [1]), 25 to 100%; at M2 muscarinic receptor (setting [1]), 25 to 100%.

Consider `COc1ccc(C#Cc2ccccc2)cc1C1CCN(C2CC3CC[C@H]2C3)CC1` (stereo in doubt) [Compound 64, 1-((1S,2R,4R)-bicyclo[2.2.1]heptan-2-yl)-4-(2-methoxy-5-(phenyl-ethynyl)phenyl)piperidine], for which the Emax is 25 to 100% on M1 muscarinic receptor (setting [1]), under 25% at M3 muscarinic receptor (setting [1]), 25 to 100% at M4 muscarinic receptor (setting [1]) and 25 to 100% on M2 muscarinic receptor (setting [1]). The “M1 Activity” value on M1 muscarinic receptor is reported as “+ (activity was measured to be greater than 5.0 μM)”. Besides, the “M3 Activity” value at M3 muscarinic receptor is “+ (activity was measured to be greater than 5.0 μM)”. In addition, the “M4 Activity” value on M4 muscarinic receptor is “++ (activity was measured to be from 1.0 μM to 5.0 μM)”. Besides, at M2 muscarinic receptor, the “M2 Activity” value is reported as “+ (activity was measured to be greater than 5.0 μM)”.

As for `COc1ccc(C(=O)C(C)C)cc1C1CCN(C2CC3CC[C@H]2C3)CC1` (stereo in doubt) [Compound 222, 1-(3-(1-((1S,2R,4R)-bicyclo[2.2.1]heptan-2-yl)piperidin-4-yl)-4-methoxyphenyl)-2-methylpropan-1-one], the Emax on M1 muscarinic receptor (setting [1]) was 25 to 100%; on M3 muscarinic receptor (setting [1]), under 25%; at M4 muscarinic receptor (setting [1]), under 25%; at M2 muscarinic receptor (setting [1]), under 25%.

`Oc1ccccc1C1CCN(C2CC3CC[C@H]2C3)CC1` (stereo in doubt) [Compound 229, 2-(1-((1S,2R,4R)-bicyclo[2.2.1]heptan-2-yl)piperidin-4-yl)phenol]: the Emax on M1 muscarinic receptor (setting [1]) was 25 to 100%; at M3 muscarinic receptor (setting [1]) it was under 25%; at M4 muscarinic receptor (setting [1]) it was 25 to 100%; on M2 muscarinic receptor (setting [1]) it was under 25%. Besides, on M1 muscarinic receptor, the “M1 Activity” value was “++ (activity was measured to be from 1.0 μM to 5.0 μM)”. The “M3 Activity” value at M3 muscarinic receptor was “+ (activity was measured to be greater than 5.0 μM)”. Further, the “M4 Activity” value at M4 muscarinic receptor is reported as “++ (activity was measured to be from 1.0 μM to 5.0 μM)”. Further, the “M2 Activity” value on M2 muscarinic receptor is “+ (activity was measured to be greater than 5.0 μM)”.

Take `COc1ccccc1C1CCN(C2CC3CC[C@H]2C3)CC1` (stereo in doubt) [Compound 397, 1-((1S,2R,4R)-bicyclo[2.2.1]heptan-2-yl)-4-(2-methoxyphenyl)piperidine]: the Emax at M1 muscarinic receptor (setting [2]) is 25 to 100%; on M3 muscarinic receptor (setting [2]) it was under 25%; at M4 muscarinic receptor (setting [2]), 25 to 100%; at M2 muscarinic receptor (setting [2]), under 25%. At M1 muscarinic receptor, the “M1 Activity” value was “++ (activity was measured to be from 1.0 μM to 5.0 μM)”. The “M3 Activity” value on M3 muscarinic receptor is recorded as “+ (activity was measured to be greater than 5.0 μM)”. Besides, the “M4 Activity” value at M4 muscarinic receptor is recorded as “+++ (activity was measured to be less than 1.0 μM)”. The “M2 Activity” value at M2 muscarinic receptor was “+ (activity was measured to be greater than 5.0 μM)”.

For `COc1ccccc1C1(C#N)CCN(C2CC3CCC(C3)C2)CC1` (stereo not shown) [Compound 421], the results for the maximal response (Emax) at M1 muscarinic receptor (setting [2]), at M4 muscarinic receptor (setting [2]) and at M2 muscarinic receptor (setting [2]) were 25 to 100%, 25 to 100% and under 25%, respectively. Also, the “M1 Activity” value at M1 muscarinic receptor was “++ (activity was measured to be from 1.0 μM to 5.0 μM)”. In addition, on M4 muscarinic receptor, the “M4 Activity” value is on record as “+++ (activity was measured to be less than 1.0 μM)”. Also, the “M2 Activity” value on M2 muscarinic receptor is “++ (activity was measured to be from 1.0 μM to 5.0 μM)”.
